Measured values taken from the NIST ThermoML archive (doi:10.1016/j.fluid.2009.08.017).
± gives the expanded uncertainty stated by the source.

Experiment: activity coefficient (dimensionless); of the first substance listed, at infinite dilution; xn = mol fraction of the nth substance listed
Conditions: 101 kPa, Liquid, Chromatography, x1 = 0

SMILES: C=CCCCCCC [oct-1-ene] + CCCCCCOCn1cc[n+](C)c1.O=S(=O)([N-]S(=O)(=O)C(F)(F)F)C(F)(F)F
- activity coefficient (298.15 K): 7.97 ± 0.54
- activity coefficient (308.15 K): 7.67 ± 0.52
- activity coefficient (318.15 K): 7.39 ± 0.5
- activity coefficient (328.15 K): 7.12 ± 0.49
- activity coefficient (338.15 K): 6.89 ± 0.47
- activity coefficient (348.15 K): 6.69 ± 0.46
- activity coefficient (358.15 K): 6.5 ± 0.44
- activity coefficient (368.15 K): 6.34 ± 0.43

SMILES: C1CCOC1 [tetrahydrofuran] + CCCCCCOCn1cc[n+](C)c1.O=S(=O)([N-]S(=O)(=O)C(F)(F)F)C(F)(F)F
- activity coefficient (298.15 K): 0.424 ± 0.035
- activity coefficient (308.15 K): 0.438 ± 0.035
- activity coefficient (318.15 K): 0.452 ± 0.036
- activity coefficient (328.15 K): 0.466 ± 0.036
- activity coefficient (338.15 K): 0.479 ± 0.037
- activity coefficient (348.15 K): 0.491 ± 0.037
- activity coefficient (358.15 K): 0.504 ± 0.038
- activity coefficient (368.15 K): 0.515 ± 0.038

SMILES: C#CCCC [1-pentyne] + CCCCCCOCn1cc[n+](C)c1.O=S(=O)([N-]S(=O)(=O)C(F)(F)F)C(F)(F)F
- activity coefficient (298.15 K): 1.54 ± 0.1
- activity coefficient (308.15 K): 1.56 ± 0.1
- activity coefficient (318.15 K): 1.57 ± 0.1
- activity coefficient (328.15 K): 1.58 ± 0.1
- activity coefficient (338.15 K): 1.59 ± 0.11
- activity coefficient (348.15 K): 1.59 ± 0.11
- activity coefficient (358.15 K): 1.6 ± 0.11
- activity coefficient (368.15 K): 1.61 ± 0.11

SMILES: C#CCCCCCC [1-octyne] + CCCCCCOCn1cc[n+](COCCCCCC)c1.O=S(=O)([N-]S(=O)(=O)C(F)(F)F)C(F)(F)F
- activity coefficient (298.15 K): 1.65 ± 0.11
- activity coefficient (308.15 K): 1.66 ± 0.11
- activity coefficient (318.15 K): 1.66 ± 0.11
- activity coefficient (328.15 K): 1.66 ± 0.11
- activity coefficient (338.15 K): 1.67 ± 0.11
- activity coefficient (348.15 K): 1.67 ± 0.11
- activity coefficient (358.15 K): 1.67 ± 0.11
- activity coefficient (368.15 K): 1.67 ± 0.11

SMILES: CCCO [propan-1-ol] + CCCCCCOCn1cc[n+](COCCCCCC)c1.O=S(=O)([N-]S(=O)(=O)C(F)(F)F)C(F)(F)F
- activity coefficient (298.15 K): 1.31 ± 0.09
- activity coefficient (308.15 K): 1.19 ± 0.08
- activity coefficient (318.15 K): 1.09 ± 0.07
- activity coefficient (328.15 K): 1 ± 0.063
- activity coefficient (338.15 K): 0.929 ± 0.059
- activity coefficient (348.15 K): 0.861 ± 0.055
- activity coefficient (358.15 K): 0.803 ± 0.052
- activity coefficient (368.15 K): 0.752 ± 0.049

SMILES: C1CCCCC1 [cyclohexane] + CCCCCCOCn1cc[n+](C)c1.O=S(=O)([N-]S(=O)(=O)C(F)(F)F)C(F)(F)F
- activity coefficient (298.15 K): 5.44 ± 0.37
- activity coefficient (308.15 K): 5.14 ± 0.35
- activity coefficient (318.15 K): 4.87 ± 0.33
- activity coefficient (328.15 K): 4.63 ± 0.32
- activity coefficient (338.15 K): 4.43 ± 0.3
- activity coefficient (348.15 K): 4.24 ± 0.29
- activity coefficient (358.15 K): 4.07 ± 0.28
- activity coefficient (368.15 K): 3.91 ± 0.27

SMILES: C=CCCCCC [1-heptene] + CCCCCCOCn1cc[n+](COCCCCCC)c1.O=S(=O)([N-]S(=O)(=O)C(F)(F)F)C(F)(F)F
- activity coefficient (298.15 K): 2.7 ± 0.18
- activity coefficient (308.15 K): 2.64 ± 0.18
- activity coefficient (318.15 K): 2.59 ± 0.18
- activity coefficient (328.15 K): 2.54 ± 0.17
- activity coefficient (338.15 K): 2.49 ± 0.17
- activity coefficient (348.15 K): 2.45 ± 0.17
- activity coefficient (358.15 K): 2.41 ± 0.16
- activity coefficient (368.15 K): 2.37 ± 0.16

SMILES: CCCCC [pentane] + CCCCCCOCn1cc[n+](C)c1.O=S(=O)([N-]S(=O)(=O)C(F)(F)F)C(F)(F)F
- activity coefficient (298.15 K): 7.34 ± 0.5
- activity coefficient (308.15 K): 6.93 ± 0.47
- activity coefficient (318.15 K): 6.54 ± 0.45
- activity coefficient (328.15 K): 6.25 ± 0.43
- activity coefficient (338.15 K): 5.92 ± 0.4
- activity coefficient (348.15 K): 5.68 ± 0.39
- activity coefficient (358.15 K): 5.43 ± 0.37
- activity coefficient (368.15 K): 5.21 ± 0.36

SMILES: C=CCCCC [hex-1-ene] + CCCCCCOCn1cc[n+](C)c1.O=S(=O)([N-]S(=O)(=O)C(F)(F)F)C(F)(F)F
- activity coefficient (298.15 K): 4.89 ± 0.33
- activity coefficient (308.15 K): 4.72 ± 0.32
- activity coefficient (318.15 K): 4.59 ± 0.31
- activity coefficient (328.15 K): 4.46 ± 0.3
- activity coefficient (338.15 K): 4.33 ± 0.29
- activity coefficient (348.15 K): 4.23 ± 0.29
- activity coefficient (358.15 K): 4.12 ± 0.28
- activity coefficient (368.15 K): 4.03 ± 0.27

SMILES: C#CCCC [1-pentyne] + CCCCCCOCn1cc[n+](COCCCCCC)c1.O=S(=O)([N-]S(=O)(=O)C(F)(F)F)C(F)(F)F
- activity coefficient (298.15 K): 0.992 ± 0.062
- activity coefficient (308.15 K): 0.997 ± 0.062
- activity coefficient (318.15 K): 1 ± 0.063
- activity coefficient (328.15 K): 1.01 ± 0.063
- activity coefficient (338.15 K): 1.01 ± 0.063
- activity coefficient (348.15 K): 1.02 ± 0.064
- activity coefficient (358.15 K): 1.02 ± 0.064
- activity coefficient (368.15 K): 1.02 ± 0.064

SMILES: CCCCCCC [heptane] + CCCCCCOCn1cc[n+](C)c1.O=S(=O)([N-]S(=O)(=O)C(F)(F)F)C(F)(F)F
- activity coefficient (298.15 K): 10.6 ± 0.7
- activity coefficient (308.15 K): 10 ± 0.7
- activity coefficient (318.15 K): 9.51 ± 0.65
- activity coefficient (328.15 K): 9.07 ± 0.62
- activity coefficient (338.15 K): 8.65 ± 0.59
- activity coefficient (348.15 K): 8.28 ± 0.56
- activity coefficient (358.15 K): 7.95 ± 0.54
- activity coefficient (368.15 K): 7.66 ± 0.52

SMILES: c1ccccc1 [benzene] + CCCCCCOCn1cc[n+](C)c1.O=S(=O)([N-]S(=O)(=O)C(F)(F)F)C(F)(F)F
- activity coefficient (298.15 K): 0.802 ± 0.052
- activity coefficient (308.15 K): 0.807 ± 0.052
- activity coefficient (318.15 K): 0.812 ± 0.053
- activity coefficient (328.15 K): 0.816 ± 0.053
- activity coefficient (338.15 K): 0.82 ± 0.053
- activity coefficient (348.15 K): 0.824 ± 0.053
- activity coefficient (358.15 K): 0.827 ± 0.053
- activity coefficient (368.15 K): 0.832 ± 0.054

SMILES: C1CCCCCC1 [cycloheptane] + CCCCCCOCn1cc[n+](C)c1.O=S(=O)([N-]S(=O)(=O)C(F)(F)F)C(F)(F)F
- activity coefficient (298.15 K): 6.51 ± 0.44
- activity coefficient (308.15 K): 6.15 ± 0.42
- activity coefficient (318.15 K): 5.8 ± 0.4
- activity coefficient (328.15 K): 5.49 ± 0.37
- activity coefficient (338.15 K): 5.23 ± 0.36
- activity coefficient (348.15 K): 5.02 ± 0.34
- activity coefficient (358.15 K): 4.79 ± 0.33
- activity coefficient (368.15 K): 4.6 ± 0.31

SMILES: C#CCCCCCC [1-octyne] + CCCCCCOCn1cc[n+](C)c1.O=S(=O)([N-]S(=O)(=O)C(F)(F)F)C(F)(F)F
- activity coefficient (298.15 K): 3.15 ± 0.21
- activity coefficient (308.15 K): 3.14 ± 0.21
- activity coefficient (318.15 K): 3.13 ± 0.21
- activity coefficient (328.15 K): 3.13 ± 0.21
- activity coefficient (338.15 K): 3.12 ± 0.21
- activity coefficient (348.15 K): 3.11 ± 0.21
- activity coefficient (358.15 K): 3.11 ± 0.21
- activity coefficient (368.15 K): 3.1 ± 0.21

SMILES: C=CCCCC [hex-1-ene] + CCCCCCOCn1cc[n+](COCCCCCC)c1.O=S(=O)([N-]S(=O)(=O)C(F)(F)F)C(F)(F)F
- activity coefficient (298.15 K): 2.25 ± 0.15
- activity coefficient (308.15 K): 2.2 ± 0.15
- activity coefficient (318.15 K): 2.15 ± 0.15
- activity coefficient (328.15 K): 2.11 ± 0.14
- activity coefficient (338.15 K): 2.07 ± 0.14
- activity coefficient (348.15 K): 2.04 ± 0.14
- activity coefficient (358.15 K): 2.01 ± 0.14
- activity coefficient (368.15 K): 1.97 ± 0.13

SMILES: CCCCCCCCC [nonane] + CCCCCCOCn1cc[n+](COCCCCCC)c1.O=S(=O)([N-]S(=O)(=O)C(F)(F)F)C(F)(F)F
- activity coefficient (298.15 K): 5.93 ± 0.4
- activity coefficient (308.15 K): 5.67 ± 0.39
- activity coefficient (318.15 K): 5.42 ± 0.37
- activity coefficient (328.15 K): 5.22 ± 0.36
- activity coefficient (338.15 K): 5.01 ± 0.34
- activity coefficient (348.15 K): 4.84 ± 0.33
- activity coefficient (358.15 K): 4.68 ± 0.32
- activity coefficient (368.15 K): 4.53 ± 0.31

SMILES: C1CCCC1 [cyclopentane] + CCCCCCOCn1cc[n+](COCCCCCC)c1.O=S(=O)([N-]S(=O)(=O)C(F)(F)F)C(F)(F)F
- activity coefficient (298.15 K): 1.84 ± 0.12
- activity coefficient (308.15 K): 1.78 ± 0.12
- activity coefficient (318.15 K): 1.74 ± 0.12
- activity coefficient (328.15 K): 1.69 ± 0.11
- activity coefficient (338.15 K): 1.65 ± 0.11
- activity coefficient (348.15 K): 1.61 ± 0.11
- activity coefficient (358.15 K): 1.57 ± 0.1
- activity coefficient (368.15 K): 1.54 ± 0.1

SMILES: CC(C)=O [acetone] + CCCCCCOCn1cc[n+](COCCCCCC)c1.O=S(=O)([N-]S(=O)(=O)C(F)(F)F)C(F)(F)F
- activity coefficient (298.15 K): 0.262 ± 0.03
- activity coefficient (308.15 K): 0.267 ± 0.03
- activity coefficient (318.15 K): 0.272 ± 0.03
- activity coefficient (328.15 K): 0.277 ± 0.03
- activity coefficient (338.15 K): 0.281 ± 0.03
- activity coefficient (348.15 K): 0.286 ± 0.031
- activity coefficient (358.15 K): 0.29 ± 0.031
- activity coefficient (368.15 K): 0.294 ± 0.031
